According to ChEMBL document CHEMBL4616660, “Phenylpropanoid-Conjugated Triterpenoids from the Leaves of Actinidia arguta and Their Inhibitory Activity on α-Glucosidase” (J Nat Prod, 2020):

Tested on: Saccharomyces cerevisiae
Assay: Inhibition of Saccharomyces cerevisiae alpha-glucosidase at 100 uM using p-nitrophenyl alpha-Dglucopyranoside as substrate preincubated for 15 mins followed by substrate addition and measured after 20 mins relative to control

| inhibition | SMILES |
| --- | --- |
| 23.9% | CO[C@@H]1C(O)=C2[C@@H]3[C@@H](C)[C@H](C)CC[C@]3(C)CC[C@@]2(C)[C@]2(C)CC[C@H]3C(C)(C)[C@@H](O)CC[C@]3(C)[C@@H]12 |
| 72.8% | C[C@H]1[C@H](C)CC[C@]2(C(=O)O)CC[C@]3(C)C(=CC[C@@H]4[C@@]5(C)C[C@@H](O)[C@H](OC(=O)/C=C/c6ccc(O)c(O)c6)[C@@](C)(CO)[C@@H]5CC[C@]43C)[C@H]12 |
| 59% | C[C@H]1[C@H](C)CC[C@]2(C(=O)O)CC[C@]3(C)C(=CC[C@@H]4[C@@]5(C)C[C@@H](O)[C@H](O)[C@@](C)(COC(=O)/C=C\c6ccc(O)cc6)[C@@H]5CC[C@]43C)[C@H]12 |
| 3% | C=C1C=C[C@]2(C(=O)O)CC[C@]3(C)C(=CC[C@@H]4[C@@]5(C)C[C@@H](O)[C@@H](O)[C@@](C)(CO)[C@@H]5CC[C@]43C)[C@@H]2[C@H]1C |
| 13% | C=C1CC[C@]2(C(=O)O)CC[C@]3(C)C(=CC[C@@H]4[C@@]5(C)C[C@@H](O)[C@H](O)[C@@](C)(CO)[C@@H]5CC[C@]43C)[C@@H]2[C@H]1C |
| 1.7% | C=C1CC[C@]2(C(=O)O)CC[C@]3(C)C(=CC[C@@H]4[C@@]5(C)C[C@@H](O)[C@@H](O)[C@@](C)(CO)[C@@H]5CC[C@]43C)[C@@H]2[C@H]1C |
| 34.3% | C[C@H]1[C@H](C)CC[C@]2(CO)CC[C@]3(C)C(=CC(=O)[C@@H]4[C@@]5(C)CC[C@H](O)C(C)(C)[C@@H]5CC[C@]43C)[C@H]12 |
| 70.1% | C=C1CC[C@]2(C(=O)O)CC[C@]3(C)C(=CC[C@@H]4[C@@]5(C)C[C@@H](OC(=O)/C=C/c6ccc(O)cc6)[C@H](O)[C@@](C)(CO)[C@@H]5CC[C@]43C)[C@@H]2[C@H]1C |
| 59.9% | C=C1CC[C@]2(C(=O)O)CC[C@]3(C)C(=CC[C@@H]4[C@@]5(C)C[C@@H](O)[C@H](O)[C@@](C)(COC(=O)/C=C/c6ccc(O)cc6)[C@@H]5CC[C@]43C)[C@@H]2[C@H]1C |
| 67.2% | C[C@H]1[C@H](C)CC[C@]2(C(=O)O)CC[C@]3(C)C(=CC[C@@H]4[C@@]5(C)C[C@@H](OC(=O)/C=C/c6ccc(O)cc6)[C@H](O)[C@@](C)(CO)[C@@H]5CC[C@]43C)[C@H]12 |
| 67% | C[C@H]1[C@H](C)CC[C@]2(C(=O)O)CC[C@]3(C)C(=CC[C@@H]4[C@@]5(C)C[C@@H](O)[C@H](O)[C@@](C)(COC(=O)/C=C/c6ccc(O)cc6)[C@@H]5CC[C@]43C)[C@H]12 |
| 72.8% | C[C@H]1O[C@H](O[C@H]2[C@H](O)[C@@H](O)[C@@H](O[C@H]3[C@H](O)[C@@H](O)C(O)O[C@@H]3CO)O[C@@H]2CO)[C@H](O)[C@@H](O)[C@@H]1N[C@H]1C=C(CO)[C@@H](O)[C@H](O)[C@H]1O (stereo partly specified) |
| 38.8% | C=C1CC[C@]2(C(=O)O)CC[C@]3(C)C(=CC[C@@H]4[C@@]5(C)C[C@@H](O)[C@H](O)[C@@](C)(COC(=O)/C=C\c6ccc(O)cc6)[C@@H]5CC[C@]43C)[C@@H]2[C@H]1C |
| 81.3% | C[C@H]1[C@H](C)CC[C@]2(C(=O)O)CC[C@]3(C)C(=CC[C@@H]4[C@@]5(C)C[C@@H](O)[C@H](OC(=O)/C=C/c6ccc(O)cc6)[C@@](C)(CO)[C@@H]5CC[C@]43C)[C@H]12 |
| 41.4% | C=C1CC[C@]2(C(=O)O)CC[C@]3(C)C(=CC[C@@H]4[C@@]5(C)C[C@@H](O)[C@H](OC(=O)/C=C\c6ccc(O)cc6)[C@@](C)(CO)[C@@H]5CC[C@]43C)[C@@H]2[C@H]1C |
| 65.8% | C=C1CC[C@]2(C(=O)O)CC[C@]3(C)C(=CC[C@@H]4[C@@]5(C)C[C@@H](O)[C@H](OC(=O)/C=C/c6ccc(O)cc6)[C@@](C)(CO)[C@@H]5CC[C@]43C)[C@@H]2[C@H]1C |
